Among the data in ChEMBL document CHEMBL1158261, “Cercophorins A-C: novel antifungal and cytotoxic metabolites from the coprophilous fungus Cercophora areolata” (1996) are zone of inhibition and Activity values, retold here.

Holding throughout (format): functional
One test concerns Bacillus subtilis. The experiment in a line: […] activity against Bacillus subtilis ATCC 6051 at 200 ug/disk by standard disk assay. Conditions: read-out: IZ.
The test system of the next test is Staphylococcus aureus. Nature of the test: […] activity against Staphylococcus aureus ATCC 29213 at 200 ug/disk by standard disk assay. Particulars: read-out: IZ.
The subject of the next test is Sordaria fimicola. The experiment in a line: Antifungal activity against Sordaria fimicola NRRL 6459 assessed as reduction in radical growth at 200 ug/disk by centerpoint inoculation disk assay. Also on record: scale not given: the % may be the effect or the level left.
Another test has as its system Ascobolus. Nature of the test: Antifungal activity against Ascobolus furfuraceus NRRL 6460 assessed as reduction in radical growth at 200 ug/disk by centerpoint inoculation disk assay. On the set-up: scale not given: the % may be the effect or the level left.

Regarding `COC(=O)c1cc(OC)cc(O)c1C(=O)c1c(O)cc2cc(C)oc(=O)c2c1O` [CERCOPHORIN A], the zone of inhibition at 200 µg/disc in the test on Bacillus subtilis is 26 mm; in the test with Staphylococcus aureus it was 16 mm. Besides, the Activity in the test on Sordaria fimicola worked out at 34%.
In the case of `COC(=O)c1cc(OC)cc(OC(=O)c2c(O)cc3cc(C)oc(=O)c3c2O)c1O` [CERCOPHORIN B], the Activity with Sordaria fimicola was determined as 10%.
As for `COC(=O)c1cc(OC)cc(O)c1OC(=O)c1c(O)cc2cc(C)oc(=O)c2c1O` [CERCOPHORIN C], the Activity in the test with Sordaria fimicola amounted to 51%.
For `Cc1oc(=O)c2c(O)cc(O)c(C)c2c1C` [DECARBOXYCITRINONE], the Activity in the test on Ascobolus and in the test on Sordaria fimicola was 100% in each case.
